{
  "source": "patent US20240024403A1",
  "about": "“Compositions and Methods for Managing Weight” (Unigen, Inc., priority 2012, published 2024)",
  "experiment": "High fat diet induced obesity (DIO) mouse model",
  "assay_type": "in vivo, C57CL/6J mice",
  "settings": "for Weight (total body weight) / Total Weight: in g (unit assumed)",
  "method": "C57CL/6J mice aged 4-6 weeks (Korea Research Institute of Bioscience & Biotechnology, Ohchang, Korea) were housed in Polycarbonate cages (five mice per cage) in a room with a 12 hr:12 hr light-dark cycle and an ambient temperature of 24° C. All the mice were fed a commercial chow diet for 1 week after arrival in the animal facility. Mice were then divided into normal and obesity groups and fed with normal diet (ND) and high fat diets (HFD) respectively. The HFD group was divided into multiple treatment groups: a high fat diet vehicle group (HFD), an orlistat (purchased as OTC drug Alli®) positive control treatment group (ORI, 40 mg/kg of animal weight, 2 times/day) and optionally a sibutramine positive control treatment group (10 mg/kg, 1 time/day). The HFD contained 340 g of fat/kg of HFD (310 g lard plus 30 g soybean oil; Harlan Laboratories, USA). The HFD was formulated to provide 60% of the total energy generated by the diet from fat by replacing carbohydrate energy with lard and soybean oil, whereas the normal diet (ND) group was fed a diet providing only 18% of the total diet energy from fat(Harlan Laboratories, USA).\nBody weight was measured once each week and feed intake was measured twice per week. At the end of the experimental period, following a 12 hr. fasting period, the animals were anesthetized with ether, and blood was drawn from the abdominal vein. Liver and kidney and adipose tissues (epididymal, retroperitoneal, perirenal adipose tissues) were removed from each animal, rinsed with physiological saline, and weighed. Serum concentrations of glucose, total cholesterol, triglycerides, and LDL-cholesterol were determined using automatic analyzer (INTEGRA 400, Roche, Germany). Statistical significance of test results was measured using the Student's t-test.",
  "key": {"[1]": {"settings": "DIO mice blood biochemistry, SIB 10 mg/kg, ORI 40 mg/kg, Mutamba extract 32 (G1) 1000 mg/kg, mean"}, "[2]": {"settings": "DIO mice blood biochemistry, SIB 10 mg/kg, ORI 40 mg/kg, Mutamba extract 33-2 G1 1000 mg/kg, mean"}, "[3]": {"settings": "DIO mice liver pathology score, SIB 10 mg/kg, ORI 40 mg/kg, Mutamba extract 32 (G1) 1000 mg/kg, mean"}, "[4]": {"settings": "DIO mice, ORI 40 mg/kg, seven week study, mean"}, "[5]": {"settings": "DIO mice, biochemistry parameters, G3, G4 1000 mg/kg oral two times per day"}, "[6]": {"settings": "DIO mice, blood at end of study, ORI 40 mg/kg, mean"}, "[7]": {"settings": "DIO mice, blood at end of study, ORI 40 mg/kg, G1 300 mg/kg (Morus:Magnolia 2:1)"}, "[8]": {"settings": "DIO mice, blood at end of study, ORI 40 mg/kg, G1 1200 mg/kg (Morus:Yerba Mate 1:5)"}, "[9]": {"settings": "DIO mice, liver pathology, ORI 40 mg/kg, mean"}, "[10]": {"settings": "DIO mice, oral, seven weeks, combination (2:5) 700 mg/kg, ORI 40 mg/kg, group mean"}, "[11]": {"settings": "DIO mice, oral, week 1, ORI 40 mg/kg, G1 700 mg/kg (Morus:Rosemary 2:5)"}, "[12]": {"settings": "DIO mice, oral, week 1, ORI 40 mg/kg, G1 1200 mg/kg (Morus:Yerba Mate 1:5)"}, "[13]": {"settings": "DIO mice, oral, week 2, ORI 40 mg/kg, G1 700 mg/kg (Morus:Rosemary 2:5)"}, "[14]": {"settings": "DIO mice, oral, week 2, ORI 40 mg/kg, G1 1200 mg/kg (Morus:Yerba Mate 1:5)"}},
  "data": [
    {"smiles": "CCCCCCCCCCC[C@@H](C[C@@H]1OC(=O)[C@H]1CCCCCC)OC(=O)[C@H](CC(C)C)NC=O", "note": "[ORI, orlistat]", "values": [
      {"measurement": "ALT", "setting": "[1]", "value": 40.42, "unit": "U/L"},
      {"measurement": "AST", "setting": "[1]", "value": 67.96, "unit": "U/L"},
      {"measurement": "HDL-C", "setting": "[1]", "value": 78.52, "unit": "mg/dL"},
      {"measurement": "LDL-C", "setting": "[1]", "value": 6.78, "unit": "mg/dL"},
      {"measurement": "T-chol", "setting": "[1]", "value": 184.40, "unit": "mg/dL"},
      {"measurement": "TG", "setting": "[1]", "value": 143.60, "unit": "mg/dL"},
      {"measurement": "LDL-C", "setting": "[2]", "value": 7.42, "unit": "mg/dL"},
      {"measurement": "T-chol", "setting": "[2]", "value": 182.40, "unit": "mg/dL"},
      {"measurement": "TG", "setting": "[2]", "value": 41.20, "unit": "mg/dL"},
      {"measurement": "Hepatocellular ballooning (0-2)", "setting": "[3]", "value": 0.60},
      {"measurement": "Lobular Inflammation (0-3)", "setting": "[3]", "value": 1.60},
      {"measurement": "Steatosis (0-3)", "setting": "[3]", "value": 1.20},
      {"measurement": "NASH (sum)", "setting": "DIO mice liver pathology, sum of scores, SIB 10 mg/kg, ORI 40 mg/kg, Mutamba extract 32 (G1) 1000 mg/kg, mean", "value": 3.40},
      {"measurement": "Food Intake", "setting": "[4]", "value": 3.195, "unit": "g/day"},
      {"measurement": "Weight Gain", "setting": "[4]", "value": 0.000, "unit": "g/day"},
      {"measurement": "Food Efficiency Ratio (FER)", "setting": "DIO mice, ORI 40 mg/kg, seven week study, body weight gain/food intake", "value": 0.000},
      {"measurement": "Weight Gain", "setting": "DIO mice, ORI 40 mg/kg, week 1, mean", "value": "−5.43"},
      {"measurement": "Weight Gain", "setting": "DIO mice, ORI 40 mg/kg, week 2, mean", "value": "−6.69"},
      {"measurement": "Weight Gain", "setting": "DIO mice, ORI 40 mg/kg, week 3, mean", "value": "−5.27"},
      {"measurement": "Weight Gain", "setting": "DIO mice, ORI 40 mg/kg, week 4, mean", "value": "−3.47"},
      {"measurement": "Weight Gain", "setting": "DIO mice, ORI 40 mg/kg, week 5, mean", "value": "−2.34"},
      {"measurement": "Weight Gain", "setting": "DIO mice, ORI 40 mg/kg, week 6, mean", "value": "−1.08"},
      {"measurement": "Weight Gain", "setting": "DIO mice, ORI 40 mg/kg, week 7, mean", "value": 0.02},
      {"measurement": "ALP", "setting": "[5]", "value": 186.51, "unit": "U/L"},
      {"measurement": "ALT", "setting": "[5]", "value": 35.12, "unit": "U/L"},
      {"measurement": "AST", "setting": "[5]", "value": 62.03, "unit": "U/L"},
      {"measurement": "Glu", "setting": "[5]", "value": 267.22, "unit": "mg/dL"},
      {"measurement": "HDL-C", "setting": "[5]", "value": 74.22, "unit": "mg/dL"},
      {"measurement": "LDL-C", "setting": "[5]", "value": 7.56, "unit": "mg/dL"},
      {"measurement": "T-chol", "setting": "[5]", "value": 175.44, "unit": "mg/dL"},
      {"measurement": "TG", "setting": "[5]", "value": 46.78, "unit": "mg/dL"},
      {"measurement": "TP", "setting": "[5]", "value": 4.89, "unit": "g/dL"},
      {"measurement": "ALT", "setting": "[6]", "value": 21.83, "unit": "U/L"},
      {"measurement": "AST", "setting": "[6]", "value": 65.65, "unit": "U/L"},
      {"measurement": "TG", "setting": "[6]", "value": 27.83, "unit": "mg/dL"},
      {"measurement": "F-Glu (fasting glucose)", "setting": "[7]", "value": 225.50, "unit": "mg/dL"},
      {"measurement": "LDL-C", "setting": "[7]", "value": 3.30, "unit": "mg/dL"},
      {"measurement": "T-Chol (total cholesterol)", "setting": "[7]", "value": 134.00, "unit": "mg/dL"},
      {"measurement": "Triglyceride", "setting": "[7]", "value": 62.50, "unit": "mg/dL"},
      {"measurement": "F-Glu (fasting glucose)", "setting": "[8]", "value": 225.50, "unit": "mg/dL"},
      {"measurement": "LDL-C", "setting": "[8]", "value": 3.30, "unit": "mg/dL"},
      {"measurement": "T-Chol (total cholesterol)", "setting": "[8]", "value": 134.00, "unit": "mg/dL"},
      {"measurement": "Triglyceride", "setting": "[8]", "value": 62.50, "unit": "mg/dL"},
      {"measurement": "Hepatocellular ballooning (0-2)", "setting": "[9]", "value": 0.67},
      {"measurement": "Lobular Inflammation (0-3)", "setting": "[9]", "value": 1.33},
      {"measurement": "NASH (sum)", "setting": "[9]", "value": 2.67},
      {"measurement": "Steatosis (0-3)", "setting": "[9]", "value": 0.67},
      {"measurement": "Perirenal Fat", "setting": "DIO mice, oral, seven weeks, combination 700 mg/kg, ORI 40 mg/kg, group mean", "value": 0.43},
      {"measurement": "Food Efficiency Ratio (FER)", "setting": "DIO mice, oral, seven weeks, combination (2:5) 700 mg/kg, ORI 40 mg/kg, FER = body weight gain/food intake", "value": 0.005},
      {"measurement": "Body Weight Gain", "setting": "[10]", "value": 0.012, "unit": "g/day"},
      {"measurement": "Food Intake", "setting": "[10]", "value": 2.711, "unit": "g/day"},
      {"measurement": "Weight (total body weight)", "setting": "DIO mice, oral, week 0, ORI 40 mg/kg, G1 700 mg/kg (Morus:Rosemary 2:5)", "value": 42.39},
      {"measurement": "Total Weight", "setting": "DIO mice, oral, week 0, ORI 40 mg/kg, G1 1200 mg/kg (Morus:Yerba Mate 1:5)", "value": 38.40},
      {"measurement": "Body Weight Gain", "setting": "DIO mice, oral, week 1, ORI 40 mg/kg, G1 300 mg/kg (Morus:Magnolia 2:1)", "value": "−3.20"},
      {"measurement": "Body Weight Gain", "setting": "[11]", "value": "−3.56"},
      {"measurement": "Weight (total body weight)", "setting": "[11]", "value": 38.83},
      {"measurement": "Weight Gain", "setting": "[12]", "value": "−3.20"},
      {"measurement": "Total Weight", "setting": "[12]", "value": 35.20},
      {"measurement": "Body Weight Gain", "setting": "DIO mice, oral, week 2, ORI 40 mg/kg, G1 300 mg/kg (Morus:Magnolia 2:1)", "value": "−4.88"},
      {"measurement": "Body Weight Gain", "setting": "[13]", "value": "−5.75"},
      {"measurement": "Weight (total body weight)", "setting": "[13]", "value": 36.64},
      {"measurement": "Weight Gain", "setting": "[14]", "value": "−4.88"},
      {"measurement": "Total Weight", "setting": "[14]", "value": 33.58},
      {"measurement": "Body Weight Gain", "setting": "DIO mice, oral, week 3, ORI 40 mg/kg, G1 300 mg/kg (Morus:Magnolia 2:1)", "value": "−3.34"}
    ]}
  ]
}
